Assay results taken from patent publication US20110212923A1, “Phosphate Derivatives of Substituted Benzoxazoles” (PFIZER INC., priority 2008, published 2011).
≈ marks a conversion by molar mass, not a printed value.

How the values were obtained:
[1] = test system: Albino BALBc mice, cecal ligation puncture (CLP); assay: cecal ligation puncture (mCLP) model, 7-day survival; assay type: in vivo
Protocol: The cecal ligation puncture (CLP) procedure was derived from a modification of standard methods previously described. Female, non-pregnant, specific pathogen-free, Albino BALBc mice (20-25 gm) were used in this experiment. The test compound (n=8 in each group) or corn oil control (n=12) were randomized to a treatment protocol consisting of 50 mg/kg of either the test compound or similar volume of corn oil at the time of CLP (time 0) and 24 and 48 hours following surgery. Animals were allowed to eat and drink sterile water on an ad libitum basis until 12 h before surgery when food was withheld until after the surgical procedure.
Anesthetized animals (methoxyflurane, Mallinckodt Veterninary Inc., Mundeline, Ill.) had the abdominal skin shaved and a midline, abdominal incision was made. The cecum was exteriorized and distended using intraluminal contents from the colon. The cecum was then ligated below the ileocecal valve and punctured twice using a 23-gauge sterile needle. The cecum was returned to the peritoneal cavity and the transversalis fascia was closed along with the skin incision. The skin incision was covered with topical bacitracin ointment. The animals were given a single […] dose of trovafloxacin (20 mg/kg IM) immediately post-operatively and a 1-mL subcutaneous dose of PBS was given as fluid resuscitation. […] All animals underwent necropsy examination for histological evidence of organ injury, pathology scoring of intestinal mucosa and quantitative bacteriology.
Differences in survival time between groups were analyzed by Kaplan-Meier survival plots and log-rank testing. Other parameters were measured using a Mann-Whitney U-Test for 2 groups or the Kruskal-Wallis one way analysis of variance for 3 or more groups. A p value of <0.05 was considered significant. All data is presented as mean and standard deviation.
The root compound (ERB-041) was dosed IV in the mCLP model, at 1 and 3 mg/kg at 24, 48 and 72 hours after induction of peritonitis. This therapeutic IV administration in mCLP confirmed attenuation of lung injury and cytokine/chemokine responses and attenuation of the subsequent clinical course, respectively.^5 achieving 7-day survival of 95 and 90% in the 3 and 1 mg/kg groups.
The 1 and 3 mg/kg doses were different from vehicle (0.05).

[2] = aqueous solubility at pH 7.4; assay type: physicochemical; conditions: aqueous medium at pH 7.4 (buffer not specified), pH 7.4, aqueous buffer
[3] = IV pharmacokinetics; assay type: in vivo
Protocol: (§1) In this study, 5, 15, 30 min, 1, 2, 4, 6, 8 and 24 hr plasma samples were collected following a single IV dose of the mono-phosphate derivative (1.3 and 3.9 mg/kg) to mice, rats and monkeys. Equal volume (100 μL) of samples from 5, 15, 30 min and 1, 2, 4 hr and 6, 8, 24 hr time points from each subject (n=3) were pooled from the two dosing groups. Aliquots (900 μL) of pooled plasma were mixed with 2700 μL of cold acetonitrile and centrifuged at 3200×g for 10 minutes. The resulting supernatants were transferred to clean tubes and evaporated to dryness in a TurboVap LV at ambient temperature under a slow stream of nitrogen. The dried extracts were reconstituted with 300 μL of 20:80 acetonitrile:water (v/v). The samples were then analyzed by LC/UV/MS for metabolite profiling and characterization. LC-ESI/MS in negative ionization mode was used to acquire mass spectral data.

[4] = metabolite profiling of pooled plasma after single IV dose of the mono-phosphate derivative, rat; conditions: single IV dose of mono-phosphate derivative (1.3 and 3.9 mg/kg), LC/UV/MS
Protocol: as §1

[5] = metabolite profiling of pooled plasma after single IV dose of the mono-phosphate derivative, mouse; conditions: single IV dose of mono-phosphate derivative (1.3 and 3.9 mg/kg), LC/UV/MS
Protocol: as §1

[6] = metabolite profiling of pooled plasma after single IV dose of the mono-phosphate derivative, monkey; conditions: single IV dose of mono-phosphate derivative (1.3 and 3.9 mg/kg), LC/UV/MS
Protocol: as §1

[7] = 1 mg/kg IV at 24, 48 and 72 hours after surgery / induction of peritonitis
[8] = 3 mg/kg IV at 24, 48 and 72 hours after surgery / induction of peritonitis

Structure (SMILES)	7-day survival ([1]; 0.3 mg/kg IV at 24, 48 and 72 hours after surgery)	7-day survival [1, 7]	7-day survival [1, 8]	minimally effective dose in mCLP ([1]; IV)	solubility [2]	IV pharmacokinetics [3]	Metabolites of phosphate prodrug characterized in plasma: Rat [4]	Metabolites of phosphate prodrug characterized in plasma: Mouse [5]	Metabolites of phosphate prodrug characterized in plasma: Monkey [6]	lung injury and cytokine/chemokine responses ([1]; 1 and 3 mg/kg IV at 24, 48 and 72 hours after induction of peritonitis)
C=Cc1cc(O)cc2nc(-c3ccc(OP(=O)(O)O)c(F)c3)oc12 [Mono-Phosphate derivative of ERB 041, 2-fluoro-4-(5-hydroxy-7-vinylbenzo[d]oxazol-2-yl)phenyl dihydrogen phosphate]	40%	60%	60%	1 mg/kg	> 100 µg/mL	reasonable	Yes	Yes	Yes	
C=Cc1cc(O)cc2nc(-c3ccc(O)c(F)c3)oc12 [ERB-041, 2-(3-fluoro-4-hydroxyphenyl)-7-vinyl-1,3-benzoxazol-5-ol, reference compound]		90%	95%		4 µg/mL (≈ 14.7 µM)		Yes	Yes	Yes	attenuation
